Read-outs that look alike come from different tables or passages of the source.
Columns and labels:
[1] = cited from earlier work; for Ferritin level after treatment: HF, ejection fraction <40% and anaemia
[2] = irrespective if iron was given orally or intravenously; cited from earlier work
[3] = for median ferritin level: thirteen patients who took study medication according to protocol for 12 weeks, baseline 42 (32-57.5); for Hemoglobin / hsCRP / Hepcidin / Transferrin / Iron / TSAT (transferrin saturation) / Ferritin: intention to treat, 100 mg tablet orally twice a day; for Hemoglobin: 20 patients, baseline 144; for hsCRP: baseline 2.0; for Hepcidin: baseline 2.5; for Transferrin: baseline 2.6; for Iron: baseline 13.5; for TSAT (transferrin saturation): baseline 20; for Ferritin: baseline 47
Description: Most of these patients were screened during the year 2018 until January 2019 were the target population. […] These 42 patients defined by inclusion and exclusion criteria for participation were called by phone and informed about the study. After having given oral and written consent to participate blood sampling was performed to confirm or reject the presence of non-anemic ID.
• All patients with a case record diagnosis of HF, both those with preserved EF or reduced EF were potentially eligible, provided there were no contraindications to participate. • The diagnosis of HF was on symptoms and an ECHO verified reduction of cardiac function, systolic and/or diastolic dysfunction. Those with an EF=<40% were classified as HFrEF and those with EF>40% as preserved HF.
(§1) The study was planned as an open pilot study without placebo control. The study was performed at the research unit at the department of Medicine-Geriatric, a special heart failure case record with laboratory data was filed before the start of the study, after six weeks and after 3 months (±2 weeks) at the end of study. Adverse reactions and side effects were registered at each visit.
Inofer® is an oral product against ID in a form of film-coated tablets. […] The patients are given one tablet ( )twice a day during a period of at least three months.
1 tablet was taken in the morning and 1 tablet was taken in the evening at bedtime for at least 3 months. The tablet was not taken with food.
Blood sampling was performed according to local and current guidelines. Blood was centrifuged, divided into aliquots and stored at minus 80° C. in a safe deposit box, Biobank Västerbotten, until analysis. Hemoglobin, CRP, ferritin, serum iron, TSAT and hepcidin were analyzed before start, at 6 weeks and 3 months after treatment.
Continuous variables are presented as means ±standard deviation for normally distributed values, median and interquartile range for skewed variables, and numbers and percentages for categorical variables. Due to skewed variables for ferritin and TSAT non-parametric test was used for related or independent data. Data were analysed using IBM SPSS Software version 24 (IBM Corp. Chicago, Illinois, USA).

[4] = Description: as §1
[5] = long-term intravenous therapy; cited from earlier work
[6] = cited from earlier work
[7] = after oral iron succinate treatment
[8] = percentage of patients exhibiting the symptom in the study

In the case of `O=S(=O)([O-])[O-].[Fe+2]` [ferrous sulphate], the “increase of TSAT, oral vs. intravenous administration of iron” value ([1]; oral 200 mg 3 times a day compared with intravenous iron sucrose) is given as “less” and the “Ferritin level after treatment” value ([1]; oral 200 mg 3 times a day, from 115±141) is given as 218 ± 189 ng/mL.
For `O=C([O-])CCC(=O)[O-].[Fe+2]` [iron succinate, ferrous succinate], the “uptake compared to other iron compounds” value [2] is given as “most favourable uptake”, the “increase of ferritin levels in patients with HFpEF compared with HFrEF” value [3, 7] is given as “about the same magnitude” and the “uptake (levels) in females compared with males” value [3, 7] is given as “increased rather equally”. For the same molecule, the median ferritin level ([3]; at 6 weeks) was 83 (61-110.5) μg/L, the median ferritin level ([3]; at 12 weeks) was 87 µg/L and the Hemoglobin ([3]; median at 6 weeks) was 138 g/L. For the same molecule, the hsCRP ([3]; median at 6 weeks) was 2.0 mg/L, the Hepcidin ([3]; median at 6 weeks, p=0.006) was 4.8 nmol/L and the Transferrin ([3]; median at 6 weeks, p=0.038) was 2.4 g/L. For the same molecule, the Iron ([3]; median at 6 weeks) was 16.5 µmol/L, the “TSAT (transferrin saturation)” value ([3]; median at 6 weeks, p=0.046) was 27% and the Ferritin ([3]; median at 6 weeks, p=0.009) was 78 µg/L. It also gave a Hemoglobin ([3]; median at 12 weeks) of 142 g/L, a hsCRP ([3]; median at 12 weeks) of 1.9 mg/L and a Hepcidin ([3]; median at 12 weeks, p=0.026) of 4.2 nmol/L. For the same molecule, the Transferrin ([3]; median at 12 weeks, p=0.009) was 2.3 g/L, the Iron ([3]; median at 12 weeks) was 16.0 µmol/L and the “TSAT (transferrin saturation)” value ([3]; median at 12 weeks, p=0.043) was 25%. For the same molecule, the Ferritin ([3]; median at 12 weeks, p=0.001) was 85 µg/L, the “TSAT at EOS” value ([3]; one patient who stopped study medication after 3.5 weeks, baseline 16) was 21% and the “ferritin level at EOS” value ([3]; one patient who stopped study medication after 3.5 weeks, baseline 198) was 237 µg/L. For the same molecule, the “increase of ferritin level from baseline to EOS” value (“increase … to EOS” below) ([3]; one patient who took only one tablet per day for 2.5 weeks) was 38%, the “increase … to EOS” value ([3]; one patient who took only one tablet per day for 6 weeks) was 174% and the “increase … to EOS” value ([3]; one patient who took only one tablet per day for 7.5 weeks) was 95%. For the same molecule, the “patients who stopped study medication because of vomiting or diarrhea” value ([4]; of 20 patients) was “Three”, the “patients who stopped study medication before EOS” value ([4]; of 20 patients) was “four” and the “Breathlessness, %” value [4, 8] was 90%. The “Constipation, %” value [4, 8] was 20%, the “Diarrhea, %” value [4, 8] was 5% and the “Stomic pain, %” value [4, 8] was 10%. For the same molecule, the “Tiredness, %” value [4, 8] was 80%.
In the case of ferric carboxymaltose, the “symptomatic and morbidity effects in patients with HF” value [5] is listed as “beneficial symptomatic and morbidity effects”.
For iron polysaccharide, the “uptake in iron deposits” value ([6]; high dose oral, 16 weeks, HFrEF) is given as “marginal uptake”, the “exercise capacity over 16 weeks” value ([6]; high dose oral, HFrEF) is given as “did not improve exercise capacity” and the TSAT increase ([6]; oral 150 mg twice daily for 16 weeks, HFrEF (<40%) and iron deficiency, CI −3 to 7, placebo 0, p=0.003) is given as 2%. The Ferritin increase ([6]; oral 150 mg twice daily for 16 weeks, HFrEF (<40%) and iron deficiency, CI −8 to 38, placebo 1) was 18 ng/mL.
In the case of iron sucrose, the “Ferritin level after treatment” value ([1]; intravenous 200 mg per week for 5 weeks, from 167±149) is listed as 293 ± 270 ng/mL.
